Assay [1] has as its system wheat leaf rust, Puccinia recondita. As to the kind of experiment: whole plant or invertebrate. Particulars: foliar; for pest or weed control at 280.212 g/ha: read-out: % Control (with 1" of rain), foliar, 0.25 lb., 1" of rain; for pest or weed control at 1120.85 g/ha: read-out: % Control (with 1" of rain), foliar, 1 lb., 1" of rain. Format: in vivo.
The test system is the same in assay [2]. As to the kind of experiment: whole plant or invertebrate. In kind it is in vivo. Particulars: foliar; for pest or weed control at 280.212 g/ha: read-out: % Control (without rain), foliar, 0.25 lb.; for pest or weed control at 1120.85 g/ha: read-out: % Control (without rain), foliar, 1 lb.

We go through 25 molecules from patent US4120864A, “1,2,4-4H-triazole derivatives” (Rohm and Haas Company, priority 1972, dated 1978).

Structures can show the parent of a compound that is named as a salt. Where two headings read alike, the source gives them in different places.

As to `CC(O)CCn1cnnc1` (centres unmarked) [Example 20, 4-(3-hydroxybutyl)-1,2,4-triazole], the pest or weed control at 280.212 g/ha in assay [1] and in assay [2] was 0% throughout. Further, the pest or weed control at 1120.85 g/ha in assay [1] and in assay [2] was 0% throughout.

With `c1nncn1CCCCn1cnnc1` [Example 37, 4-[4-(1,2,4-triazyl)butyl]-1,2,4-triazole], in assay [1], the pest or weed control at 280.212 g/ha is 5% and the pest or weed control at 1120.85 g/ha is 0%. Besides, in assay [2], the pest or weed control at 280.212 g/ha was 0% and the pest or weed control at 1120.85 g/ha worked out at 0%.

Consider `c1nncn1C1CC1` [Example 2, 4-cyclopropyl-1,2,4-triazole], for which the values for the pest or weed control at 280.212 g/ha in assay [1] and in assay [2] were 40% and 90%, respectively. The pest or weed control at 1120.85 g/ha in assay [1] was 0%; in assay [2] it was 90%.

For `CCCCn1cnnc1SCCOc1ccccc1` [Example 109, 3-(2-phenoxyethylmercapto)-4-n-butyl-1,2,4-triazole], in assay [1], the pest or weed control at 280.212 g/ha turned out to be 96% and the pest or weed control at 1120.85 g/ha amounted to 100%. In assay [2], the pest or weed control at 280.212 g/ha was determined as 100% and the pest or weed control at 1120.85 g/ha is 100%.

As for `c1nncn1N1CCOCC1` [Example 64, 4-morpholino-1,2,4-triazole], in assay [2], the pest or weed control at 280.212 g/ha is 88% and the pest or weed control at 1120.85 g/ha was 94%.

For the molecule `Cn1c(S)nnc1-c1ccco1` [Example 90, 3-mercapto-4-methyl-5-(2-furyl)-1,2,4-triazole], in assay [1], the pest or weed control at 280.212 g/ha was determined as 80% and the pest or weed control at 1120.85 g/ha was 87%. In assay [2], the pest or weed control at 280.212 g/ha is 0% and the pest or weed control at 1120.85 g/ha is 28%.

Consider `Cn1c(S)nnc1C(=O)O` [Example 93, 3-mercapto-4-methyl-5-carboxy-1,2,4-triazole], for which the results for the pest or weed control at 280.212 g/ha in assay [1] and in assay [2] were 0% and 65%, respectively. Further, the pest or weed control at 1120.85 g/ha in assay [1] was determined as 0%; in assay [2], 94%.

With `c1ccc(-n2cnnc2)nc1` [Example 62, 4-(2-pyridyl)-1,2,4-triazole], in assay [1], the pest or weed control at 1120.85 g/ha is 99%. Besides, in assay [2], the pest or weed control at 280.212 g/ha was determined as 100% and the pest or weed control at 1120.85 g/ha came to 100%.

For the molecule `COc1ccc(SCCn2cnnc2)cc1` [Example 32, 4-(2-(4-methoxythiophenoxy)ethyl)-1,2,4-trianzole], in assay [1], the pest or weed control at 280.212 g/ha worked out at 30% and the pest or weed control at 1120.85 g/ha came out at 85%. Also, in assay [2], the pest or weed control at 280.212 g/ha was 95% and the pest or weed control at 1120.85 g/ha turned out to be 99%.

For `O=C(Sc1nncn1-c1ccccc1)c1cccc([N+](=O)[O-])c1` [Example 130, 3-(3-nitrobenzoylmercapto)-4-phenyl-1,2,4-triazole], in assay [2], the pest or weed control at 280.212 g/ha amounted to 97% and the pest or weed control at 1120.85 g/ha came out at 100%.

Take `Cn1cnnc1S` [Example 73, 3-mercapto-4-methyl-1,2,4-triazole]: in assay [1], the pest or weed control at 280.212 g/ha was found to be 0% and the pest or weed control at 1120.85 g/ha is 10%. Besides, in assay [2], the pest or weed control at 280.212 g/ha was determined as 34% and the pest or weed control at 1120.85 g/ha worked out at 50%.

As to `CCn1cnnc1S` [Example 74, 3-mercapto-4-ethyl-1,2,4-triazole], the values for the pest or weed control at 280.212 g/ha in assay [1] and in assay [2] were 0% and 40%, respectively. Besides, the pest or weed control at 1120.85 g/ha in assay [1] is 0%; in assay [2] it was 60%.

As to `OCCn1cnnc1` [Example 17, 4-(2-hydroxyethyl)-1,2,4-triazole], in assay [1], the pest or weed control at 280.212 g/ha was determined as 0% and the pest or weed control at 1120.85 g/ha is 0%. In assay [2], the pest or weed control at 280.212 g/ha was 60% and the pest or weed control at 1120.85 g/ha amounted to 5%.

For the molecule `c1ccc(-n2cnnc2)cc1` [Example 54, 4-phenyl-1,2,4-triazole], in assay [1], the pest or weed control at 280.212 g/ha worked out at 25% and the pest or weed control at 1120.85 g/ha came out at 85%. For the same molecule, in assay [2], the pest or weed control at 280.212 g/ha came to 75% and the pest or weed control at 1120.85 g/ha was 90%.

`COc1ccc(C(=O)Sc2nncn2-c2ccccc2)cc1` [Example 129, 3-(4-methoxybenzoylmercapto)-4-phenyl-1,2,4-triazole]: the pest or weed control at 280.212 g/ha in assay [1] and in assay [2] was 100% in each case. Also, the results for the pest or weed control at 1120.85 g/ha in assay [1] and in assay [2] were 99% and 100%, respectively.

In the case of `CCCCn1cnnc1SC(=O)c1cccc([N+](=O)[O-])c1` [Example 122, 3-(3-nitrobenzoylmercapto)-4-n-butyl-1,2,4-triazole], in assay [1], the pest or weed control at 280.212 g/ha stood at 100% and the pest or weed control at 1120.85 g/ha is 100%. In assay [2], the pest or weed control at 280.212 g/ha amounted to 100% and the pest or weed control at 1120.85 g/ha was 100%.

With `COc1ccc(CCn2cnnc2)cc1` [Example 34, 4-(4-methoxyphenethyl)-1,2,4-triazole], the pest or weed control at 280.212 g/ha in assay [1] and in assay [2] was 15% each time. Moreover, the pest or weed control at 1120.85 g/ha in assay [1] was determined as 15%; in assay [2], 25%.

Turning to `CCCCn1cnnc1SC(=O)c1cc(OC)c(OC)c(OC)c1` [Example 123, 3-(3,4,5-trimethoxybenzoylmercapto)-4-n-butyl-1,2,4-triazole], the figures for the pest or weed control at 280.212 g/ha in assay [1] and in assay [2] were 90% and 98%, respectively. Further, the pest or weed control at 1120.85 g/ha in assay [1] was found to be 98%; in assay [2] it was 100%.

With `Clc1ccc(OCCn2cnnc2)cc1` [Example 26], the pest or weed control at 280.212 g/ha in assay [1] and in assay [2] was 0% in each case. In addition, the pest or weed control at 1120.85 g/ha in assay [1] was 0%; in assay [2], 10%.

Take `C=CCSc1nncn1CCCC` [Example 105, 3-allylmercapto-4-n-butyl-1,2,4-triazole]: in assay [1], the pest or weed control at 280.212 g/ha is 50% and the pest or weed control at 1120.85 g/ha was 90%. In assay [2], the pest or weed control at 280.212 g/ha turned out to be 50% and the pest or weed control at 1120.85 g/ha is 95%.

In the case of `C#CC(C)(C)n1cnnc1` [Example 16, 4-(1,1-dimethylpropargyl)-1,2,4-triazole], in assay [1], the pest or weed control at 280.212 g/ha stood at 0% and the pest or weed control at 1120.85 g/ha is 0%. Also, in assay [2], the pest or weed control at 280.212 g/ha worked out at 0% and the pest or weed control at 1120.85 g/ha was 0%.

Turning to `CCCCn1cnnc1SC` [Example 102, 3-methylmercapto-4-n-butyl-1,2,4-triazole], in assay [1], the pest or weed control at 280.212 g/ha was determined as 51% and the pest or weed control at 1120.85 g/ha is 51%. In addition, in assay [2], the pest or weed control at 280.212 g/ha is 100% and the pest or weed control at 1120.85 g/ha came out at 100%.

For the molecule `Clc1cccc(-n2cnnc2)c1` [Example 55, 4-(3-chlorophenyl)-1,2,4-triazole hydrochloride], in assay [2], the pest or weed control at 280.212 g/ha is 100% and the pest or weed control at 1120.85 g/ha was determined as 100%.

As to `c1nncn1-n1cnnc1` [Example 65], in assay [2], the pest or weed control at 280.212 g/ha is 64% and the pest or weed control at 1120.85 g/ha stood at 78%.

In the case of `c1ccc(CCn2cnnc2)cc1` [Example 33, 4-phenethyl-1,2,4-triazole], in assay [2], the pest or weed control at 280.212 g/ha was found to be 100% and the pest or weed control at 1120.85 g/ha came to 100%.
